Here are results for 16 compounds from patent publication US20230037448A1, “FLUORINATED QUINOLINE AND QUINOXALINE DERIVATIVES AS DIHYDROOROTATE DEHYDROGENASE (DHODH) INHIBITORS FOR THE TREATMENT OF CANCER, AUTOIMMUNE AND INFLAMMATORY DISEASES” (Janssen Biotech, Inc., priority 2019, published 2023).

As usually defined, the IC50 is the point on the concentration scale where inhibition reaches its midpoint. Read a high IC50 as lower potency.

Structures are written as SMILES. Some results are limits rather than exact numbers.

In one experiment the test system is MOLM-13 cells. Nature of the experiment: MOLM-13 Cellular Assay. Format: cell-based. Particulars: Homo sapiens, MOLM-13, 72 h, 72 hours exposure, cell viability by CellTiter-Glo. The protocol:
MOLM-13 cells were obtained from DSMZ and were maintained in RPMI 1640+Glutamax+25 mM HEPES (Invitrogen, catalog number 72400) supplemented with 10% heat inactivated fetal bovine serum (FBS; Invitrogen, catalog number 16140). The day prior to assay set-up, cells were pelleted, resuspended in fresh media, counted, and cells were plated at 0.4×10^6 cell/mL in a T150 flask. On the day of the assay, cells were pelleted, resuspend in fresh media, counted, and seeded at 5,000 cells/well in white opaque 96-well tissue culture treated microplates (Perkin Elmer, catalog number 6005680). Cells were exposed to different concentrations of test compounds at 37° C., 5% CO2 for 72 hours immediately after seeding. Cell viability was acquired on a Perkin Elmer Envision 2104 multilabel reader using the CellTiter-Glo assay (Promega) according to the manufacturer's instructions.
(In ATP-based viability assays light output follows the ATP content of the culture.)

A further experiment addresses T1, human DHODH (Homo sapiens, UniProt Q02127).
T1 construct: purchased Proteros PR-0044
Nature of the experiment: DHODH Enzymatic Assay. Particulars: purified human DHODH; DCIP absorbance, end-point mode. Format: biochemical. The protocol: To detect DHODH enzyme activities, dichloroindophenol (DCIP) is added as the final electron acceptor in the assay. DCIP can accept electrons from the reduced coenzyme Q generated in the assay, or from dihydroorotate (DHO) via FMN by binding presumably to the ubiquinone pocket. DCIP solutions are blue, with an intense absorbance around 600 nm, but becomes colorless upon reduction (J. Biol. Chem. (1986) 261, 11386). The assay buffer contained […], pH 7.5, 150 mM NaCl, 0.5 mM EDTA, and 0.1% Triton X-100 in MilliQ water. Substrate consisting of 20 mM DHO, 5 mM CoQ6, and 1 mM DCIP in assay buffer, initiates the reaction. The assay is run in end-point mode by quenching the reaction with the potent DHODH inhibitor brequinar. Absorbance measurements were obtained using the BMG Phera Star plate-reading spectrophotomer. Purified human DHODH was purchased from Proteros (cat. No. PR-0044). Chemicals were purchased from Sigma-Aldrich, Teknova, and Avanti Polar Lipids. Liquid handling was performed using Labcyte Echo and Formulatrix Tempest.

T1 sequence (Q02127 whole entry): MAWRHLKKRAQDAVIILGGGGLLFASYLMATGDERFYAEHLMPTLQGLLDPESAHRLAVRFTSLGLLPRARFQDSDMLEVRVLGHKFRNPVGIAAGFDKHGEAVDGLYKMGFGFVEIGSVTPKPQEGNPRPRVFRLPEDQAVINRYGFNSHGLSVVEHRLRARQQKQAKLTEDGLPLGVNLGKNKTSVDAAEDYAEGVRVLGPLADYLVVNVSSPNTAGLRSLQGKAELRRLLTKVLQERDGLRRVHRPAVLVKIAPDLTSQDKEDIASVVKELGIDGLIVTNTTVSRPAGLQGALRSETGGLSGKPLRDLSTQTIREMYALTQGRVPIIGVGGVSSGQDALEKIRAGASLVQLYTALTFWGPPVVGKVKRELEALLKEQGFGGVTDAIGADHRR

On to `CCn1c(CO)nn(-c2cc3c(C(C)C)cc(-c4ccccc4C)[n+]([O-])c3cc2F)c1=O` [Example 21, 6-(4-Ethyl-3-(hydroxymethyl)-5-oxo-4,5-dihydro-1H-1,2,4-triazol-1-yl)-7-fluoro-4-isopropyl-2-(o-tolyl)quinoline 1-oxide], for which the figures for the concentration for half-maximal inhibition (IC50) in the experiment with MOLM-13 cells and against human DHODH were 5 nM and 4.6 nM, respectively.

In the case of `CCn1c(CO)nn(-c2cc3c(C(C)C)cc(-c4ccnc(O)c4C)nc3cc2F)c1=O` [Example 22, 4-Ethyl-1-(7-fluoro-2-(2-hydroxy-3-methylpyridin-4-yl)-4-isopropylquinolin-6-yl)-3-(hydroxymethyl)-1H-1,2,4-triazol-5 (4H)-one], the IC50 was over 100 nM with MOLM-13 cells and 3.9 nM on human DHODH.

With `CCn1c(CO)nn(-c2cc3c(C(C)C)cc(-c4c[nH]nc4C(F)(F)F)nc3cc2F)c1=O` [Example 23, 4-Ethyl-1-(7-fluoro-4-isopropyl-2-(3-(trifluoromethyl)-pH-pyrazol-4-yl)quinolin-6-yl)-3-(hydroxymethyl)-1H-1,2,4-triazol-5 (4H)-one], the IC50 in the experiment on MOLM-13 cells was 9 nM; against human DHODH, 14 nM.

Consider `CCn1c(CO)nn(-c2cc3c(C(C)C)cc(-c4cc(O)ncc4C)nc3cc2F)c1=O` [Example 24, 4-Ethyl-1-(7-fluoro-2-(2-hydroxy-5-methylpyridin-4-yl)-4-isopropylquinolin-6-yl)-3-(hydroxymethyl)-1H-1,2,4-triazol-5 (4H)-one], for which the 50% inhibitory concentration (IC50) in the experiment on MOLM-13 cells is over 100 nM; at human DHODH it was 33 nM.

Consider `CCn1c(CO)nn(-c2cc3c(C(C)C)cc(-c4c(Cl)c(O)nn4C)nc3cc2F)c1=O` [Example 25, 2-(2-(4-Chloro-3-hydroxy-1-methyl-1H-pyrazol-5-yl)-7-fluoro-4-isopropylquinolin-6-yl)-4-ethyl-5-(hydroxymethyl)-2,4-dihydro-3H-1,2,4-triazol-3-one], for which the IC50 was 6 nM in the experiment on MOLM-13 cells and 11 nM against human DHODH.

For the compound `CCn1c(CO)nn(-c2cc3c(C(C)C)cc(-c4c(Cl)c(OC)nn4C)nc3cc2F)c1=O` [Example 26, 2-(2-(4-Chloro-3-methoxy-1-methyl-1H-pyrazol-5-yl)-7-fluoro-4-isopropylauinolin-6-yl)-4-ethyl-5-(hydroxymethyl)-2,4-dihydro-3H-1,2,4-triazol-3-one], the IC50 with MOLM-13 cells is 7 nM; against human DHODH, 13 nM.

Consider `CCn1c(CO)nn(-c2cc3c(C(C)C)cc(-c4c(C(F)(F)F)n[nH]c4Cl)nc3cc2F)c1=O` [Example 27, 1-(2-(5-Chloro-3-(trifluoromethyl)-1H-pyrazol-4-yl)-7-fluoro-4-isopropylquinolin-6-yl)-4-ethyl-3-(hydroxymethyl)-1H-1,2,4-triazol-5 (4H)-one], for which the IC50 with MOLM-13 cells stood at 6 nM; on human DHODH it was 0.7 nM.

Regarding `Cc1n[nH]c(C(F)(F)F)c1-c1cc(C(C)C)c2cc(-c3nc(CO)n(C)n3)c(F)cc2n1` [Example 28, (3-(7-Fluoro-4-isopropyl-2-(3-methyl-5-(trifluoromethyl)-pH-pyrazol-4-yl)quinolin-6-yl)-1-methyl-1H-1,2,4-triazol-5-yl)methanol], the results for the IC50 in the experiment with MOLM-13 cells and against human DHODH were 2 nM and 3 nM, respectively.

For the compound `Cc1n[nH]c(C(F)(F)F)c1-c1cc(C(C)C)c2cc(-c3nc(C(C)O)n(C)n3)c(F)cc2n1` (centres unmarked) [Example 29, 1-(3-(7-Fluoro-4-isopropyl-2-(3-methyl-5-(trifluoromethyl)-1H-pyrazol-4-yl)quinolin-6-yl)-1-methyl-1H-1,2,4-triazol-5-yl)ethan-1-ol], the concentration for half-maximal inhibition (IC50) in the experiment on MOLM-13 cells was 0.36 nM; on human DHODH, 1 nM.

`Cc1n[nH]c(Cl)c1-c1cc(C(C)C)c2cc(-c3nc(CO)n(C)n3)c(F)cc2n1` [Example 30, (3-(2-(5-Chloro-3-methyl-1H-pyrazol-4-yl)-7-fluoro-4-isopropylauinolin-6-yl)-1-methyl-1H-1,2,4-triazol-5-yl)methanol]: the IC50 in the experiment on MOLM-13 cells came out at 2 nM; against human DHODH it was 1.2 nM.

Turning to `Cc1n[nH]c(Cl)c1-c1cc(C(C)C)c2cc(-c3nc(C(C)O)n(C)n3)c(F)cc2n1` (centres unmarked) [Example 31, 1-(3-(2-(5-Chloro-3-methyl-1H-pyrazol-4-yl)-7-fluoro-4-isopropylauinolin-6-yl)-1-methyl-1H-1,2,4-triazol-5-yl)ethan-1-ol], the results for the IC50 in the experiment with MOLM-13 cells and on human DHODH were 0.83 nM and 1.6 nM, respectively.

For `Cc1n[nH]c(Cl)c1-c1cc(C(C)C)c2cc(-c3cn(C)c(CO)n3)c(F)cc2n1` [Example 32, (4-(2-(5-Chloro-3-methyl-1H-pyrazol-4-yl)-7-fluoro-4-isopropylauinolin-6-yl)-1-methyl-1H-imidazol-2-yl)methanol], the 50% inhibitory concentration (IC50) in the experiment on MOLM-13 cells came to 3 nM; at human DHODH, 1.2 nM.

On to `Cc1n[nH]c(C(F)(F)F)c1-c1cc(C(C)C)c2cc(-c3cn(C)c(CO)n3)c(F)cc2n1` [Example 33, (4-(7-Fluoro-4-isopropyl-2-(3-methyl-5-(trifluoromethyl)-1H-pyrazol-4-yl)quinolin-6-yl)-1-methyl-1H-imidazol-2-yl)methanol], for which the half-inhibitory concentration (IC50) with MOLM-13 cells is 1 nM; against human DHODH it was 2 nM.

With `CCn1c(CO)nn(-c2cc3c(C(C)C)nc(-c4c(C)n[nH]c4C(F)(F)F)nc3cc2F)c1=O` [Example 34, 4-Ethyl-2-(7-fluoro-4-isopropyl-2-(3-methyl-5-(trifluoromethyl)-1H-pyrazol-4-yl)quinazolin-6-yl)-5-(hydroxymethyl)-2,4-dihydro-3H-1,2,4-triazol-3-one], the results for the IC50 with MOLM-13 cells and against human DHODH were 4 nM and 5.2 nM, respectively.

In the case of `CCn1c(CO)nn(-c2cc3c(C(C)C)cc(-c4c(C)ccnc4Cl)nc3cc2F)c1=O` [Example 35, 1-(2-(2-Chloro-4-methylpyridin-3-yl)-7-fluoro-4-isopropylquinolin-6-yl)-4-ethyl-3-(hydroxymethyl)-1H-1,2,4-triazol-5 (4H)-one], the IC50 in the experiment on MOLM-13 cells came to 4 nM; against human DHODH, 4.7 nM.

On to `C=C(C)c1cc(-c2ccccc2C)nc2cc(F)c(-n3nc(CO)n(CC)c3=O)cc12` [Example 39, 4-Ethyl-1-(7-fluoro-4-(prop-1-en-2-Yl)-2-(o-tolyl)quinolin-6-yl)-3-(hydroxymethyl)-1H-1,2,4-triazol-5 (4H)-one], for which the values for the IC50 in the experiment on MOLM-13 cells and on human DHODH were 0.2 nM and 0.24 nM, respectively.
